From ChEMBL document CHEMBL1201862, “PubChem BioAssay data set” (2004)
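A five-concentration, 48-hour dose response in 96-well plates underlies each endpoint, interpolated linearly between surrounding concentrations. GI50 = concentration required for 50% inhibition of growth.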 The source made the active and inactive calls. Rule as the data show it: active = GI50 up to about 1.1 µM and inactive = higher.

Tests used:
Test in all cases: growth of human tumour cells (NCI), 48 h
RXF 393 = test system: RXF 393
HOP-92 = test system: HOP-92
SR = test system: SR
SNB-75 = test system: SNB-75
IGROV-1 = test system: IGROV-1
TK-10 = test system: TK-10
UO-31 = test system: UO-31
A549 = test system: A549
HCT-15 = test system: HCT-15
NCI-H226 = test system: NCI-H226
SK-MEL-5 = test system: SK-MEL-5
HT-29 = test system: HT-29
Hs-578T = test system: Hs-578T
OVCAR-4 = test system: OVCAR-4
HOP-62 = test system: HOP-62
NCI-H23 = test system: NCI-H23
BT-549 = test system: BT-549
M14 = test system: M14
OVCAR-8 = test system: OVCAR-8
ACHN = test system: ACHN
CAKI-1 = test system: CAKI-1
HL-60 = test system: HL-60
A498 = test system: A498
MDA-N = test system: MDA-N
KM12 = test system: KM12
HCT-116 = test system: HCT-116
CCRF-CEM = test system: CCRF-CEM
DU-145 = test system: DU-145
SK-MEL-28 = test system: SK-MEL-28
SK-MEL-2 = test system: SK-MEL-2
U-251 = test system: U-251
RPMI-8226 = test system: RPMI-8226
T47D = test system: T47D
MDA-MB-435 = test system: MDA-MB-435
UACC-257 = test system: UACC-257
NCI-H522 = test system: NCI-H522
MDA-MB-231 = test system: MDA-MB-231
UACC-62 = test system: UACC-62
COLO 205 = test system: COLO 205
Malme-3M = test system: Malme-3M
SNB-19 = test system: SNB-19
NCI/ADR-RES = test system: NCI/ADR-RES
HCC 2998 = test system: HCC 2998
LOX IMVI = test system: LOX IMVI
EKVX = test system: EKVX
PC-3 = test system: PC-3
K562 = test system: K562
786-0 = test system: 786-0
MOLT-4 = test system: MOLT-4
SN12C = test system: SN12C
SF-295 = test system: SF-295
SF-268 = test system: SF-268
SW-620 = test system: SW-620
OVCAR-3 = test system: OVCAR-3
SK-OV-3 = test system: SK-OV-3
MCF7 = test system: MCF7
SF-539 = test system: SF-539
OVCAR-5 = test system: OVCAR-5
NCI-H460 = test system: NCI-H460

Measured: GI50

Cc1ccc(C(=O)Nc2ccc(CP(=O)(O)O)cc2)cc1NC(=O)c1cccc(N)c1
inactive: RXF 393 > 100 µM | HOP-92 > 100 µM | SR > 100 µM | SNB-75 > 100 µM | IGROV-1 > 100 µM | TK-10 > 100 µM | UO-31 > 100 µM | A549 > 100 µM | NCI-H226 > 100 µM | SK-MEL-5 > 100 µM | HT-29 > 100 µM | Hs-578T > 100 µM | OVCAR-4 > 100 µM | HOP-62 > 100 µM | NCI-H23 > 100 µM | BT-549 > 100 µM | M14 > 100 µM | OVCAR-8 > 100 µM | ACHN > 100 µM | CAKI-1 > 100 µM | HL-60 > 100 µM | A498 > 100 µM | MDA-N > 100 µM | KM12 > 100 µM | HCT-116 > 100 µM | CCRF-CEM > 100 µM | DU-145 > 100 µM | SK-MEL-28 > 100 µM | SK-MEL-2 > 100 µM | U-251 > 100 µM | RPMI-8226 > 100 µM | T47D > 100 µM | MDA-MB-435 > 100 µM | UACC-257 > 100 µM | NCI-H522 > 100 µM | MDA-MB-231 > 100 µM | UACC-62 > 100 µM | COLO 205 > 100 µM | Malme-3M > 100 µM | SNB-19 > 100 µM | NCI/ADR-RES > 100 µM | HCC 2998 > 100 µM | LOX IMVI > 100 µM | EKVX > 100 µM | PC-3 > 100 µM | K562 > 100 µM | 786-0 > 100 µM | MOLT-4 > 100 µM | SN12C > 100 µM | SF-295 > 100 µM | SF-268 > 100 µM | SW-620 > 100 µM | OVCAR-3 > 100 µM | SK-OV-3 > 100 µM | MCF7 > 100 µM | SF-539 > 100 µM | OVCAR-5 > 100 µM
> 100 µM: HCT-15

Cc1cn(C2CC(O)C(Cn3nncc3Cn3ccc(=O)[nH]c3=O)O2)c(=O)[nH]c1=O (stereo not drawn)
inactive: RXF 393 > 100 µM | HOP-92 > 100 µM | SR > 100 µM | SNB-75 > 100 µM | IGROV-1 > 100 µM | TK-10 > 100 µM | UO-31 > 100 µM | A549 > 100 µM | NCI-H226 > 100 µM | SK-MEL-5 > 100 µM | HT-29 > 100 µM | Hs-578T > 100 µM | OVCAR-4 > 100 µM | HOP-62 > 100 µM | NCI-H23 > 100 µM | BT-549 > 100 µM | M14 > 100 µM | OVCAR-8 > 100 µM | ACHN > 100 µM | CAKI-1 > 100 µM | HL-60 > 100 µM | A498 > 100 µM | MDA-N > 100 µM | KM12 > 100 µM | HCT-116 > 100 µM | CCRF-CEM > 100 µM | DU-145 > 100 µM | SK-MEL-28 > 100 µM | SK-MEL-2 > 100 µM | U-251 > 100 µM | RPMI-8226 > 100 µM | T47D > 100 µM | MDA-MB-435 > 100 µM | UACC-257 > 100 µM | NCI-H522 > 100 µM | MDA-MB-231 > 100 µM | UACC-62 > 100 µM | COLO 205 > 100 µM | Malme-3M > 100 µM | SNB-19 > 100 µM | NCI/ADR-RES > 100 µM | HCC 2998 > 100 µM | LOX IMVI > 100 µM | EKVX > 100 µM | PC-3 > 100 µM | 786-0 > 100 µM | MOLT-4 > 100 µM | SN12C > 100 µM | SF-295 > 100 µM | SF-268 > 100 µM | SW-620 > 100 µM | OVCAR-3 > 100 µM | SK-OV-3 > 100 µM | MCF7 > 100 µM | SF-539 > 100 µM | OVCAR-5 > 100 µM
> 100 µM: HCT-15

CNc1ccc(Cl)cc1C(=O)N1CCC[C@H]1CO
> 100 µM: HCT-15
inactive: RXF 393 > 100 µM | HOP-92 > 58.6 µM | SR 80.9 µM | SNB-75 99.3 µM | IGROV-1 > 84.7 µM | TK-10 > 100 µM | UO-31 > 100 µM | A549 > 100 µM | NCI-H226 > 96.4 µM | HT-29 > 100 µM | Hs-578T > 100 µM | OVCAR-4 > 100 µM | HOP-62 > 100 µM | NCI-H23 > 100 µM | BT-549 > 100 µM | M14 > 100 µM | OVCAR-8 > 100 µM | ACHN > 100 µM | CAKI-1 > 100 µM | HL-60 > 100 µM | A498 > 100 µM | MDA-N > 100 µM | KM12 > 100 µM | HCT-116 > 100 µM | CCRF-CEM > 100 µM | DU-145 > 100 µM | SK-MEL-28 > 100 µM | SK-MEL-2 > 100 µM | U-251 > 100 µM | NCI-H460 > 100 µM | RPMI-8226 > 100 µM | T47D > 100 µM | MDA-MB-435 > 100 µM | UACC-257 > 100 µM | NCI-H522 > 100 µM | MDA-MB-231 > 100 µM | UACC-62 > 100 µM | COLO 205 > 100 µM | Malme-3M > 100 µM | SNB-19 > 100 µM | NCI/ADR-RES > 100 µM | HCC 2998 > 100 µM | LOX IMVI > 100 µM | EKVX > 100 µM | PC-3 > 100 µM | K562 > 100 µM | 786-0 > 100 µM | MOLT-4 > 100 µM | SN12C > 100 µM | SF-295 > 100 µM | SF-268 > 100 µM | SW-620 > 100 µM | OVCAR-3 > 100 µM | SK-OV-3 > 100 µM | MCF7 > 100 µM | SF-539 > 100 µM | OVCAR-5 > 100 µM
